Data as given in US9943534B2, “Composition for preventing or treating liver cancer containing ginsenoside F2” (INTELLIGENT SYNTHETIC BIOLOGY CENTER, priority 2016, dated 2018).

How the values were obtained:
mouse normal hepatocytes = assay: Cell survival rate (EZ-CYTOX), normal hepatocytes; type: cell-based; conditions: 10 to 60 μM, 24 hours, FIG. 1c
Method: (§1) The ginsenoside F2 prepared in Example 1 was treated to Hep3B cells, a human liver cancer cell line, Hepa1-6 cells, a mouse liver cancer cell line, and mouse normal hepatocytes at various concentrations (10 to 60 μM). After 24 hours, the survival rate of the cells was measured using EZ-CYTOX (Daeil Lab Service, Korea), which is used to measure the cell survival rate, according to the experimental method provided by the manufacturer.

Hepa1-6 cells = assay: Cell survival rate (EZ-CYTOX), mouse liver cancer cell line; type: cell-based; conditions: 10 to 60 μM, 24 hours, FIG. 1b
Method: as §1

Hep3B cells = assay: Cell survival rate (EZ-CYTOX), human liver cancer cell line; type: cell-based; conditions: 10 to 60 μM, 24 hours, FIG. 1a
Method: as §1

[1] = tested on: mouse liver cancer cell line (Hepa1-6); assay: Genomic DNA fragmentation by gel electrophoresis; type: cell-based; conditions: Hepa1-6, 24 hours, FIG. 3
Method: The cell-killing effect of ginsenoside F2 on the mouse liver cancer cell line (Hepa1-6) was confirmed by confirming the degree of DNA degradation.
Specifically, the ginsenoside F2 prepared in Example 1 was treated to the mouse liver cancer cell line (Hepa1-6) at various concentrations ([…]). After 24 hours, the cells were harvested, and the genomic DNA was extracted using a genomic DNA extraction kit (iNtRON, USA) according to the experimental method provided by the manufacturer, and subsequently, a gel electrophoresis was carried out.

[2] = tested on: liver cancer-induced mice; assay: Serum ALT and AST in liver cancer-induced mice (VetTEST); type: in vivo, mouse; conditions: 50 mg/kg three times a week for 20 weeks, vs vehicle-treated group
Method: (§2) Diethylnitrosamine (DEN), a hepatocarcinogen, was injected intraperitoneally into 14-day-old male mice at a concentration of 20 mg/kg to induce the formation of liver cancer. A vehicle (olive oil) or ginsenoside F2 (50 mg/kg) was treated three times a week from 20 weeks of age, and then 20 weeks later, the mice were sacrificed to confirm the inhibition of liver cancer formation.
Blood was collected from the abdominal aorta of the mice sacrificed in Example 3-1 above and centrifuged at 3,300 rpm for 10 minutes using a centrifuge, and then the serum was isolated only. Subsequently, the alanine aminotransferase (ALT), aspartate aminotransferase (AST) and triglyceride were measured by a VetTEST® (IDEXX, USA) according to the experimental method provided by the manufacturer using a kit provided by IDEXX Laboratories (USA).

[3] = tested on: liver cancer-induced mice; assay: Liver histology (H&E) and flow cytometry of liver immune cells in liver cancer-induced mice; type: in vivo, mouse; conditions: vs vehicle-treated group
Method: as §2
The mice sacrificed in Example 3-1 above were cut open ventrally to remove the liver, and then H&E ([…] and eosin) staining was performed to observe the histological changes of the liver.
In order to specifically measure the activity of the immune cells, the immune cells were isolated from the removed liver, and the stained cells were analyzed via a flow cytometer (LSRII, BD bioscience) using the markers shown in Table 1.

[4] = tested on: human liver cancer cell line (Hep3B); assay: Cell death by phase contrast microscopy and DAPI/TUNEL staining; type: cell-based; conditions: 10 to 60 μM, 24 hours
Method: The cell-killing effect of ginsenoside F2 on the human liver cell line (Hep3B) was confirmed using a phase contrast microscope and a fluorescence microscope.
Specifically, the ginsenoside F2 prepared in Example 1 was treated to the human liver cancer cell line (Hep3B) at various concentrations (10 to 60 μM), and after 24 hours, the state of the cells was observed under the phase contrast microscope. Further, the cells were stained using DAPI (4′,6-diamidino-2-phenylindole, Vector laboratory, USA) and TUNEL (terminal deoxyribonucleotidyl transferase mediated dUTP nick end labeling, Roche life science, USA). The staining was carried out according to the method provided by the manufacturer, and the degree of staining was observed under the fluorescence microscope.

[5] = tested on: liver cancer-induced mice; assay: Diethylnitrosamine (DEN)-induced liver cancer formation in mice: size, number, weight of cancer tissues; type: in vivo, mouse; conditions: 50 mg/kg three times a week for 20 weeks, vs vehicle-treated group
Method: as §2
The mice sacrificed in Example 3-1 above were cut open ventrally to remove the liver. Then, the size, number, and weight of the cancer tissues of the vehicle-treated group and the ginsenoside F2-treated group were compared.

[6] = 50 mg/kg three times a week for 20 weeks, FIG. 6a

## CC(C)=CCC[C@](C)(O[C@@H]1O[C@H](CO)[C@@H](O)[C@H](O)[C@H]1O)[C@H]1CC[C@]2(C)[C@@H]1[C@H](O)C[C@@H]1[C@@]3(C)CC[C@H](O[C@@H]4O[C@H](CO)[C@@H](O)[C@H](O)[C@H]4O)C(C)(C)[C@@H]3CC[C@]12C [ginsenoside F2]
Mouse normal hepatocytes
  survival rate of mouse normal hepatocytes: almost no change was observed
Hepa1-6 cells
  survival rate of mouse liver cancer cell line (Hepa1-6): decreased depending on the concentration of ginsenoside F2
Hep3B cells
  survival rate of human liver cancer cell line (Hep3B): decreased depending on the concentration of ginsenoside F2
[1]
  fragmented genomic DNA: increased with increasing concentration of ginsenoside F2
[2]; FIG. 5a
  serum ALT value: reduced
[2]; FIG. 5b
  serum AST value: reduced
[3]; [6]
  formation of liver cancer (H&E histology): inhibited
  infiltration of immune cells near the liver cancer tissues (H&E): increased
[3]; flow cytometry, FIG. 6b
  number of CD8 T cells in liver: increase
  number of macrophages in liver: increase
  number of natural killer T cells in liver: increase
[4]; FIG. 2a
  cell death under phase contrast microscope: cell death of human liver cancer cell line (Hep3B) was induced
[4]; fluorescence microscope
  number of cells stained to DAPI: no difference
[4]; fluorescence microscope, FIGS. 2a and 2b
  number of cells stained to TUNEL: increased depending on the concentration of ginsenoside F2
[5]
  body weight: no difference
  number of cancer tissues: reduced more than twice
  size of cancer tissues: significantly reduced
  weight of liver tissues: reduced
